Tested on: human Mino xenografts
Assay: IVEF study: growth inhibition of subcutaneous Mino xenografts (mantle cell lymphoma) in mice
Type: in vivo
Conditions: for % ΔT/C: day 53, baseline day 32
Method: This study evaluates the overall sensitivity of the Mino xenograft model for mantle cell lymphoma (MCL) to growth inhibition by abemaciclib. Accordingly, mice are implanted subcutaneously with human Mino xenografts treated once-daily for 28 days (QD×28) with 25 or 50 mg/kg of abemaciclib monomesylate (“compound”). In addition the response of this model to single-agent DC101, an antibody inhibitor of VEGFR2, is also evaluated as well as the combination of this antibody with abemaciclib. DC101, which is a mouse surrogate of ramucirumab, is evaluated in these studies at a dose of 20 mg/kg given twice-weekly over a period of 4 weeks (BIW×4) whereas mice in the combination group are given this dose of DC101 plus 25 mg/kg of abemaciclib. Tumor volume measurements are taken periodically to determine the effects of the various treatments on tumor growth and periodic body weight measurements are used as a general indicator of tolerability.
Female Fox Chase CB17SCID (Harlan Laboratories) mice are used for these studies. The animals are housed until they reach 18-20 […] in size.
The compound is formulated in 1% hydroxyethyl cellulose (HEC) in 25 mM phosphate buffer (PB) pH=2. The compound is formulated on a weekly basis and stored at 4° C. For the efficacy studies, the compound is administered by oral gavage once-daily for 28 days (PO, QD×28) at doses of 25 or 50 mg/kg using 0.2 ml/dose beginning on day 33 after tumor implantation. The control group is given 1% HEC vehicle according to the same schedule for the compound. The mouse surrogate for ramucirumab known as DC101 is formulated in phosphate buffered saline (PBS) and is given twice-weekly (BIW) for 4 weeks as an intraperitoneal (IP) injection at a dose of 20 mg/kg beginning on day 34. Mice in the combination group are given 25 mg/kg of the compound and 20 mg/kg of DC101 following the schedules outlined above for the monotherapy groups.
The human MCL line Mino is grown in RPMI 1640 medium+20% fetal bovine serum (FBS). Sub-confluent cells are harvested and rinsed twice with Hank's balanced saline solution (HBSS) without serum. For subcutaneous tumors, growth is initiated by subcutaneous injection of 5×10^6 cells in a 1:1 mixture of HBSS and MATRIGEL® (BD Bioscience, Franklin Lakes, N.J.) in the rear flank of each subject animal. When mean tumors volumes reach approximately 150 mm^3 in size, the animals are randomized by tumor size and body weight using a proprietary block randomization allocation tool and placed into their respective treatment groups using 7 animals per group.
Tumor size and body weight are captured using WEB DIRECTOR™. Tumor volume (V) is estimated by using the formula: V=0.536L×W^2 where L=larger of measured diameter and W=smaller of perpendicular diameter. The tumor volume data is transformed to a log scale to equalize variance across time and treatment groups. The log volume data ae analyzed with a two-way repeated measures analysis of variance by time and treatment using the MIXED procedures in SAS software (Version 9.3). The correlation model for the repeated measures is Spatial Power. Treated groups are compared to the control group at each time point. The MIXED procedure is also used separately for each treatment group to calculate adjusted means and standard errors at each time point. Both analyses accounted for the autocorrelation within each animal and the loss of data that occur when animals with large tumors are removed from the study early. The adjusted means and standard errors are plotted for each treatment group versus time.
Relative changes in tumor volume (% ΔT/C) are calculated using the tumor volume measurements taken on the day (day 53) when the control group has to be sacrificed due to tumor sizes that exceeded the threshold defined by ethical guidelines. […]

**Q.** How did the “% ΔT/C” value (25 mg/kg Compound PO QD×28, 25 mg/kg) turn out when `CCN1CCN(Cc2ccc(Nc3ncc(F)c(-c4cc(F)c5nc(C)n(C(C)C)c5c4)n3)nc2)CC1` [Compound, [5-(4-ethyl-piperazin-1-ylmethyl)-pyridin-2-yl]-[5-fluoro-4-(7-fluoro-3-isopropyl-2-methyl-3H-benzoimidazol-5-yl)-pyrimidin-2-yl]-amine] was run?
**A.** 5.2%

**Q.** And the “% ΔT/C” value (25 mg/kg Compound PO QD×28, listed as compound, 25 mg/kg)?
**A.** approximately 5%

**Q.** What about the “% ΔT/C” value (50 mg/kg Compound PO QD×28, negative value = % regression) of the same compound?
**A.** −63.6%

**Q.** And the “Mean Tumor Volume” value (day 53, 25 mg/kg Compound PO QD×28, CB17SCID mice, subcutaneous Mino xenografts)?
**A.** 317.4 mm^3

**Q.** And the “Mean Tumor Volume” value (day 53, 50 mg/kg Compound PO QD×28, CB17SCID mice, subcutaneous Mino xenografts)?
**A.** 55.4 mm^3

**Q.** What about the “mice achieved a partial response (PR)” value (day 53, 50 mg/kg abemaciclib, 7 of 7 mice) of the same compound?
**A.** 100%

**Q.** And the “mean tumor volume reduced (regression)” value (day 53, 50 mg/kg compound)?
**A.** 64%

**Q.** What about the “Mean Tumor Volume” value (day 60 (last day of dosing), 25 mg/kg Compound PO QD×28) of the same compound?
**A.** 348.6 mm^3

**Q.** What about the “Mean Tumor Volume” value (day 60 (last day of dosing), 50 mg/kg Compound PO QD×28) of the same compound?
**A.** 37.9 mm^3

— patent US20190125864A1, “COMBINATION THERAPY OF RAMUCIRUMAB AND ABEMACICLIB FOR USE IN TREATMENT OF MANTLE CELL LYMPHOMA” (Eli Lilly and Company, priority 2016, published 2019)
